Like-named read-outs stand apart in the source and are kept apart here. Square brackets hold non-standard residues; d marks the D form. Peptide text beside a SMILES is read from it.

In one data set the test system is BT474R cells. The data set is described as follows: cells. Format: cell-based, human. Particulars: for IC50: Homo sapiens, 72 h. The protocol:
(§1) Cell culture. SKBR3 and BT474 cells were obtained from ATCC (Rockville, Md.). SKBR3 and BT474 were maintained in McCoy's 5a modified medium and Dulbecco's modified Eagle medium/Ham F12 (1:1) supplemented with 10% heat-inactivated FBS, 100 units/ml penicillin, […] streptomycin, and 2 mM L-glutamine. […] Cells were treated with GO-203 and CP-2 peptides (AnaSpec). […] Viability was determined by trypan blue exclusion.
(§2) Determination of IC50 and synergism. Cells were seeded on 96-well plates in 100 μl of growth medium at a density of 3000 cells per well. After 24 h, the cells were exposed to drugs in treatment medium for an additional 72 h. Cell viability was assessed using the alamar blue viability assay (Invitrogen). Triplicate wells of each treatment were analyzed and each experiment was done three times. The IC50 values were determined by nonlinear regression of the dose-response data using Prism 5.0 for Mac OSX (GraphPad Software). […] Cell viability was determined after treatment for 72 h. The combination index (CI) was calculated to determine the presence of synergism (CI<1) or antagonism (CI>1) using CalcuSyn software (Biosoft).
(§3) Assessment of drug interaction by Bliss independence. […] Using this equation, if the experimentally measured inhibition is greater than Ei, then the combination is synergistic.38 Plots were generated by Prism GraphPad software.

For the next data set, the system named is SKBR3R cells. Description: cells. The format is cell-based. Particulars: Homo sapiens, 72 h. The protocol: as §1, §2, §3
A further data set deals with BT474 cells. The format is cell-based, human. Particulars: 72 h. The protocol:
as §1, §2

A further data set relates to SKBR3 cells. The format is cell-based, human. The protocol:
as §1, §2

The test system of the next data set is BT474R tumor xenografts. The data set is described as follows: Trastuzumab-resistant BT474R tumor xenograft model. Format: in vivo, BALB/c nu/nu mice. Conditions: 7.5 mg/kg GO-203 intravenously each day for 21 days. The protocol:
FIGS. 5A-G. Targeting MUC1-C in trastuzumab-resistant cells suppresses HER3 activation and inhibits growth and clonogenic survival. (FIG. 5A) Lysates from the indicated SKBR3R (left) and BT474R (right) cells were immunoblotted (IB) with anti-p-HER3 and anti-HER3. (FIG. 5B) The indicated SKBR3R (left) and BT474R (right) cells were seeded at 4000 and 1000 cells per well, respectively, and incubated for 12 days. The colony number is expressed as the mean±s.e. of three replicates. (FIG. 5C) SKBR3R cells were treated with […] GO-203 for the indicated times. Lysates were immunoblotted with the indicated antibodies. (FIG. 5D) SKBR3R cells were left untreated (Control; CTL) or treated with […] GO-203 for the indicated times. Cell number (mean±s.e. of three determinations) was determined by Trypan blue staining. (FIG. 5E) BT474R cells were treated with […] GO-203 for the indicated times. Lysates were immunoblotted with the indicated antibodies. (FIG. 5F) BT474R cells were left untreated (Control; CTL) or treated with […] GO-203 for the indicated times. Cell number (mean±s.e. of three determinations) was determined by Trypan blue staining. […] The results are expressed as tumor volume (mean±s.e. for the eight mice in each group).
Trastuzumab-resistant BT474R tumor xenograft model. […] Tumor volumes were calculated as described (Raina et al., 2011).

Take `CS(=O)(=O)CCNCc1ccc(-c2ccc3ncnc(Nc4ccc(OCc5cccc(F)c5)c(Cl)c4)c3c2)o1` [Lapatinib]: the Fold change in the data set with BT474R cells (BT474R cells, lapatinib IC50 alone vs with GO-203) amounted to 2.13. For the same compound, the IC50 – broadly, the midpoint of a concentration-inhibition curve – in the data set on BT474R cells (read-out: Lapatinib (μM) IC50, BT474R cells, 72 h, lapatinib alone (Table 3)) was found to be 1.43 µM; in the data set with BT474R cells (read-out: Lapatinib (μM) IC50, BT474R cells, 72 h, lapatinib alone (Table 4)) it was 1.5 µM; in the data set with BT474R cells (read-out: Lapatinib (μM) IC50 with GO-203, BT474R cells, 72 h, with 4 μM GO-203), 0.67 µM; in the data set with BT474R cells (read-out: Lapatinib (μM) IC50 with Trastuzumab and GO-203, BT474R cells, 72 h, with 40 nM trastuzumab+4 μM GO-203), 0.22 µM; in the data set with BT474R cells (read-out: Lapatinib (μM) IC50 with Trastuzumab, BT474R cells, 72 h, with 40 nM trastuzumab) it was 1.2 µM; in the data set with SKBR3R cells (read-out: Lapatinib (μM) IC50, SKBR3R cells, 72 h, lapatinib alone (Table 3)), 1.36 µM. Also, the IC50 with SKBR3R cells (read-out: Lapatinib (μM) IC50, SKBR3R cells, 72 h, lapatinib alone (Table 4)) amounted to 1.7 µM; with SKBR3R cells (read-out: Lapatinib (μM) IC50 with GO-203, SKBR3R cells, 72 h, with 4 μM GO-203), 0.94 µM; in the data set with SKBR3R cells (read-out: Lapatinib (μM) IC50 with Trastuzumab and GO-203, SKBR3R cells, 72 h, with 40 nM trastuzumab+4 μM GO-203), 0.93 µM; with SKBR3R cells (read-out: Lapatinib (μM) IC50 with Trastuzumab, SKBR3R cells, 72 h, with 40 nM trastuzumab), 1.5 µM.
For the compound `N=C(N)NCCC[C@@H](N)C(=O)N[C@H](CCCNC(=N)N)C(=O)N[C@H](CCCNC(=N)N)C(=O)N[C@H](CCCNC(=N)N)C(=O)N[C@H](CCCNC(=N)N)C(=O)N[C@H](CCCNC(=N)N)C(=O)N[C@H](CCCNC(=N)N)C(=O)N[C@H](CCCNC(=N)N)C(=O)N[C@H](CCCNC(=N)N)C(=O)N[C@H](CS)C(=O)N[C@H](CCC(N)=O)C(=O)N[C@H](CS)C(=O)N[C@H](CCCNC(=N)N)C(=O)N[C@H](CCCNC(=N)N)C(=O)N[C@H](CCCCN)C(=O)N[C@H](CC(N)=O)C(=O)O` [GO-203] (H-[dR][dR][dR][dR][dR][dR][dR][dR][dR][dC][dQ][dC][dR][dR][dK][dN]-OH), the concentration for half-maximal inhibition (IC50) was 10200 nM with BT474 cells and 5900 nM in the data set on SKBR3 cells. In addition, the weight loss entry with BT474R tumor xenografts was “no weight loss”.

The values are drawn from patent publication US9789156B2, “Combination anti-human epidermal growth factor receptor 2 (anti-HER2) cancer therapy using mucin 1 (MUC1) peptides and hemotherapeutics” (DANA-FARBER CANCER INSTITUTE, INC., priority 2013, dated 2017).
